Format in all cases: cell-based
Data set [1] deals with human peripheral blood mononuclear cells (PBMC). Briefly: Cytotoxicity test using human peripheral blood mononuclear cells (PBMC). The settings on record: compound 10 μg/mL, LPS, 24 hr, WST-1 or WST-8. The essentials:
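Healthy-donor PBMC isolated by Lymphoprep density centrifugation were seeded at 5×10^5 cells/mL (stock density) with 10 μg/mL LPS stock and test compound at 10 μg/mL final. Cultured 24 hr at 37° C, 5% CO2; survival measured by WST-1 or WST-8 versus DMSO control.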

In data set [2] the test system is MM.1S cells. As to the kind of experiment: Human myeloma cell line MM.1S proliferation suppression test. The settings on record: MM1.S, 72 h, compound 10 μM, 3 days, WST-1 or WST-8, read-out: cell survival rate (% of control) MM.1S. The essentials: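 Cells at 2×10^5 cells/mL in RPMI1640 + 10% FCS, mixed 1:1 with compound diluted from DMSO stock (final 10 μM) versus DMSO-only control. Cultured 3 days at 37 °C, 5% CO2; proliferation read with WST-1 or WST-8.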
(In general: Formazan colour is commonly taken as a measure of viable cells.)

Data set [3] has as its system Kasumi-7 cells. Briefly: Human acute lymphoblastic leukemia cell line Kasumi-7 proliferation suppression test. The settings on record: 72 h, compound 10 μM, 3 days, WST-8, read-out: cell survival rate (% of control) Kasumi-7. The essentials:
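Cells seeded at 1.3×10^5 cells/mL in RPMI1640 with 20% FCS, cultured overnight at 37°C, 5% CO2, then treated with compound at 10 μM final; DMSO vehicle control. Proliferation read by WST-8 after 3 days' culture.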

In data set [4] the test system is Pfeiffer cells. Briefly: Human diffuse large B-cell lymphoma cell line Pfeiffer proliferation suppression test. The settings on record: 144 h, compound 10 μM, 3 days + re-plating with compound 3 days, WST-8, read-out: cell survival rate (% of control) Pfeiffer. The essentials: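 Pfeiffer cells were seeded at 1.3×10^5 cells/mL and dosed the next day with compound at 10 μM final (DMSO control), then grown 3 days at 37 °C, 5% CO2. An aliquot was then passaged into a fresh plate with compound re-added at 10 μM final for 3 more days. Proliferation was read by WST-8.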

This note sets out measurements from patent US11299485B2, “Thiophene derivative and use thereof” (FUJIMOTO CO., LTD., priority 2018, dated 2022).

The structures appear in SMILES notation.

As to `COc1cscc1-c1nnn(C2CCC(=O)NC2=O)c1I` (centres unmarked) [compound 49, 3-[5-iodo-4-(4-methoxythiophen-3-yl)-1H-1,2,3-triazol-1-yl]piperidine-2,6-dione], the “cell survival rate (% of control) PBMC” value in data set [1] is 102 % of control. Also, the results for the viability at 10 µM in data set [2], in data set [3] and in data set [4] were 48%, 56% and 75%, respectively.

As to `O=C1CCC(n2cc(-c3cscc3OCC3CCCCC3)nn2)C(=O)N1` (centres unmarked) [compound 30, 3-{4-[4-(cyclohexylmethoxy)thiophen-3-yl]-1H-1,2,3-triazol-1-yl}piperidine-2,6-dione], the “cell survival rate (% of control) PBMC” value in data set [1] is given as 70 % of control. Also, the viability at 10 µM was determined as 59% in data set [2], 62% in data set [3] and 99% in data set [4].
